US11535643B2, “Macrolides with modified desosamine sugars and uses thereof” (President and Fellows of Harvard College, priority 2015, dated 2022)
Where two headings read alike, the source gives them in different places.

Tests used:
Assay type in all cases: cell-based
[1] = tested on: E. faecalis; assay: Broth dilution MIC determination (CLSI) against E. faecalis strains; settings: for MIC: Enterococcus faecalis
How it was run: (§1)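 Macrolide MICs come from CLSI-standard broth dilution testing of distinct strains, several multidrug-resistant, selected with attention to macrolide resistance mechanisms; two reference macrolides, azithromycin and solithromycin, were included.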

[2] = tested on: S. pyogenes; assay: Broth dilution MIC determination (CLSI) against S. pyogenes strains; settings: for MIC: Streptococcus pyogenes
How it was run: as §1

[3] = tested on: S. aureus; assay: Broth dilution MIC determination (CLSI) against S. aureus strains; settings: for MIC: Staphylococcus aureus
How it was run: as §1

[4] = tested on: P. aeruginosa; assay: Broth dilution MIC determination (CLSI) against P. aeruginosa strains; settings: for MIC: Pseudomonas aeruginosa
How it was run: as §1

[5] = tested on: S. pneumoniae; assay: Broth dilution MIC determination (CLSI) against S. pneumoniae strains; settings: for MIC: Streptococcus pneumoniae
How it was run: as §1

[6] = tested on: A. baumannii; assay: Broth dilution MIC determination (CLSI) against A. baumannii strains; settings: for MIC: Acinetobacter baumannii
How it was run: as §1

[7] = tested on: K. pneumoniae; assay: Broth dilution MIC determination (CLSI) against K. pneumoniae strains; settings: for MIC: Klebsiella pneumoniae
How it was run: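 CLSI broth-dilution MICs across a panel including multidrug- and macrolide-resistant strains, with azithromycin and solithromycin as control compounds.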

[8] = tested on: E. coli; assay: Broth dilution MIC determination (CLSI) against E. coli strains; settings: for MIC: Escherichia coli
How it was run: as §1

[9] = tested on: H. influenzae; assay: Broth dilution MIC determination (CLSI) against H. influenzae strains; settings: for MIC: Haemophilus influenzae
How it was run: as §1

[10] = ATCC29212, ATCC29212, read-out: MIC E. faecalis ATCC29212
[11] = Vancomycin-resistant, read-out: MIC E. faecalis Vancomycin-resistant
[12] = ATCC19615, ATCC19615, read-out: MIC S. pyogenes ATCC19615
[13] = macrolide-resistant, read-out: MIC S. pyogenes macrolide-resistant
[14] = ATCC29213, ATCC29213, read-out: MIC S. aureus ATCC29213
[15] = USA600, USA600, GISA, read-out: MIC S. aureus USA600, GISA
[16] = read-out: MIC S. aureus erm A genotype
[17] = ATCC27853, read-out: MIC P. aeruginosa ATCC27853
[18] = read-out: MIC P. aeruginosa HPA101-1477
[19] = ATCC49619, ATCC49619, read-out: MIC S. pneumoniae ATCC49619
[20] = erm B + mef A genotype, read-out: MIC S. pneumoniae erm B + mef A genotype
[21] = erm B + tet(M, O) genotype, read-out: MIC S. pneumoniae erm B + tet(M, O) genotype
[22] = read-out: MIC S. pneumoniae mef A genotype, mef A genotype
[23] = read-out: MIC S. pneumoniae mef A genotype, mef A genotype, first of two such columns (c3)
[24] = ATCC19606, ATCC19606, read-out: MIC A. baumannii ATCC19606
[25] = IMP-4, read-out: MIC A. baumannii IMP-4
[26] = chromosomal class C, read-out: MIC A. baumannii chromosomal class C
[27] = imipenem-resistant, read-out: MIC A. baumannii imipenem-resistant
[28] = ATCC10031, ATCC10031, read-out: MIC K. pneumoniae ATCC10031
[29] = KPC-2, read-out: MIC K. pneumoniae KPC-2
[30] = SHV-12, read-out: MIC K. pneumoniae SHV-12
[31] = TEM-10, read-out: MIC K. pneumoniae TEM-10
[32] = ATCC25922, ATCC25922, read-out: MIC E. coli ATCC25922
[33] = read-out: MIC E. coli CTX-M-14, CTX-M-14
[34] = read-out: MIC E. coli NDM-1, NDM-1
[35] = read-out: MIC E. coli TEM-1, TEM-1
[36] = ATCC49247, ATCC49247, read-out: MIC H. influenzae ATCC49247
[37] = erythro > 4, azithro 1, read-out: MIC H. influenzae erythro > 4, azithro 1
[38] = MRSA / USA100, MRSA: USA100, read-out: MIC S. aureus MRSA: USA100
[39] = MRSA / USA300, MRSA: USA300, read-out: MIC S. aureus MRSA: USA300

CC[C@H]1OC(=O)[C@H](C)[C@@H](O[C@H]2C[C@@](C)(OC)[C@@H](O)[C@H](C)O2)[C@H](C)[C@@H](O[C@@H]2O[C@H](C)C[C@H](N(C)C)[C@H]2O)[C@](C)(O)C[C@@H](C)CN(C)[C@H](C)[C@@H](O)[C@]1(C)O [Azithromycin, azithromycin, reference compound]
1 µg/mL: MIC [3, 14] | MIC [8, 35]
< 0.0312 µg/mL: MIC [2, 12] | MIC [5, 19] | MIC [5, 21]
0.5 µg/mL: MIC [9, 36]
> 32 µg/mL: MIC [1, 11] | MIC ([3]; MRSA / USA100, read-out: MIC S. aureus MRSA: USA100) | MIC [3, 15] | MIC [3, 16] | MIC [4, 17] | MIC [4, 18] | MIC [5, 20] | MIC [6, 25] | MIC [7, 29] | MIC [8, 33] | MIC [8, 34]
8 µg/mL: MIC [6, 27] | MIC [7, 31]
0.125 µg/mL: MIC [9, 37]
4 µg/mL: MIC [1, 10] | MIC [5, 22] | MIC [7, 28] | MIC [8, 32]
16 µg/mL: MIC [6, 24] | MIC [7, 30]
0.25 µg/mL: MIC [5, 23]
2 µg/mL: MIC [2, 13]
32 µg/mL: MIC ([3]; MRSA / USA300, read-out: MIC S. aureus MRSA: USA300) | MIC [6, 26]

CC[C@H]1OC(=O)[C@H](C)C(=O)[C@H](C)[C@@H](O[C@@H]2OC(CNS(=O)(=O)c3cccnc3)CC(N(C)C)C2O)[C@](C)(OC)C[C@@H](C)CN[C@H](C)[C@H]2N(CCCCn3cc(-c4cccc(N)c4)nn3)C(=O)O[C@]12C (some centres unmarked) [FSM-21876]
0.0625 µg/mL: MIC [2, 12]
16 µg/mL: MIC [3, 14] | MIC [5, 22] | MIC [7, 28] | MIC [9, 37]
0.0313 µg/mL: MIC [5, 21]
2 µg/mL: MIC [1, 10] | MIC [2, 13]
32 µg/mL: MIC [6, 27] | MIC [7, 29] | MIC [8, 32]
4 µg/mL: MIC [5, 23] | MIC [9, 36]
8 µg/mL: MIC [5, 20]
> 32 µg/mL: MIC [1, 11] | MIC [3, 38] | MIC [3, 39] | MIC [3, 15] | MIC [3, 16] | MIC [4, 17] | MIC [6, 24] | MIC [8, 34]
0.125 µg/mL: MIC [5, 19]

CCC1OC(=O)C(C)C(=O)C(C)C(OC2OC(COC(=O)c3ccccc3)C(O)C(N(C)C)C2O)C(C)(OC)CC(C)CNC(C)C2N(CCCCn3cc(-c4cccc(N)c4)nn3)C(=O)OC12C (centres unmarked) [FSM-21797]
16 µg/mL: MIC S. pneumoniae erm B + tet(M, O) genotype ([5]; erm B + tet(M, O) genotype)
>32 µg/mL: MIC E. faecalis Vancomycin-resistant ([1]; Vancomycin-resistant) | MIC S. aureus ATCC29213 ([3]; ATCC29213) | MIC S. aureus MRSA: USA100 ([3]; MRSA: USA100) | MIC S. aureus MRSA: USA300 ([3]; MRSA: USA300) | MIC S. aureus USA600, GISA ([3]; USA600, GISA) | MIC S. aureus erm A genotype ([3]; erm A genotype) | MIC P. aeruginosa ATCC27853 ([4]; ATCC27853) | MIC S. pneumoniae erm B + mef A genotype ([5]; erm B + mef A genotype) | MIC A. baumannii ATCC19606 ([6]; ATCC19606) | MIC A. baumannii imipenem-resistant ([6]; imipenem-resistant) | MIC K. pneumoniae ATCC10031 ([7]; ATCC10031) | MIC K. pneumoniae KPC-2 ([7]; KPC-2) | MIC E. coli ATCC25922 ([8]; ATCC25922) | MIC E. coli NDM-1 ([8]; NDM-1) | MIC H. influenzae ATCC49247 ([9]; ATCC49247) | MIC H. influenzae erythro > 4, azithro 1 ([9]; erythro > 4, azithro 1)
32 µg/mL: MIC E. faecalis ATCC29212 ([1]; ATCC29212) | MIC S. pyogenes macrolide-resistant ([2]; macrolide-resistant) | MIC S. pneumoniae ATCC49619 ([5]; ATCC49619)
8 µg/mL: MIC S. pyogenes ATCC19615 ([2]; ATCC19615)

CC[C@H]1OC(=O)[C@H](C)C(=O)[C@H](C)[C@@H](O[C@@H]2OC(Cn3cc(-c4cnc(N)s4)nn3)CC(N(C)C)C2O)[C@](C)(OC)C[C@@H](C)CN[C@H](C)[C@H]2N(CCCCn3cc(-c4cccc(N)c4)nn3)C(=O)O[C@]12C (some centres unmarked) [FSM-22125]
0.5 µg/mL: MIC [1, 10] | MIC [5, 23]
2 µg/mL: MIC [9, 37]
32 µg/mL: MIC [6, 26] | MIC [7, 28] | MIC [7, 31] | MIC [8, 32]
> 32 µg/mL: MIC [1, 11] | MIC [3, 38] | MIC [3, 39] | MIC [3, 15] | MIC [3, 16] | MIC [4, 17] | MIC [4, 18] | MIC [5, 20] | MIC [6, 24] | MIC [6, 25] | MIC [6, 27] | MIC [7, 29] | MIC [7, 30] | MIC [8, 33] | MIC [8, 34]
16 µg/mL: MIC [8, 35]
4 µg/mL: MIC [2, 13] | MIC [3, 14] | MIC [5, 22] | MIC [9, 36]
≤ 0.0312 µg/mL: MIC [2, 12] | MIC [5, 19] | MIC [5, 21]

CC[C@H]1OC(=O)[C@H](C)C(=O)[C@H](C)[C@@H](O[C@@H]2OC(CNC(=O)c3cnccn3)CC(N(C)C)C2O)[C@](C)(OC)C[C@@H](C)CN[C@H](C)[C@H]2N(CCCCn3cc(-c4cccc(N)c4)nn3)C(=O)O[C@]12C (some centres unmarked) [FSM-21881]
16 µg/mL: MIC [8, 32]
32 µg/mL: MIC [7, 31] | MIC [8, 35]
> 32 µg/mL: MIC [1, 11] | MIC [3, 38] | MIC [3, 39] | MIC [3, 15] | MIC [3, 16] | MIC [4, 17] | MIC [4, 18] | MIC [6, 24] | MIC [6, 25] | MIC [6, 26] | MIC [6, 27] | MIC [7, 29] | MIC [7, 30] | MIC [8, 33] | MIC [8, 34]
2 µg/mL: MIC [1, 10] | MIC [2, 13] | MIC [5, 22] | MIC [9, 37]
0.5 µg/mL: MIC [5, 23]
≤ 0.0312 µg/mL: MIC [2, 12] | MIC [5, 19] | MIC [5, 21]
4 µg/mL: MIC [5, 20]
8 µg/mL: MIC [3, 14] | MIC [7, 28] | MIC [9, 36]
